Source: patent US20260071190A1, “SARS CORONAVIRUS 2 R[…] […] GENES, DERIVED FROM GH CLADE SARS CORONAVIRUS 2 OF KOREAN ISOLATE, AND THE PRODUCTION METHOD THEREFOR” (RpexBio, Inc., priority 2022, published 2026)

Tested on: rSARS-COV-2/YS006_Nluc
Format: cell-based, SARS coronavirus 2
Conditions: compared to healthy human-derived IgG control, FIG. 4D

## etesevimab: Eli Lilly's recombinant monoclonal antibody for the treatment of SARS coronavirus 2
  inhibition of viral entry into cells / reporter expression: inhibit viral entry into cells and reduce reporter expression as its concentration increased
